# Measured values published in patent US9150632B2 (Indiana University Research and Technology Corporation, priority 2009, dated 2015).
# Read-outs that look alike come from different tables or passages of the source. Positions of bridges follow the written chain, without caps; N, C: chain ends. Residues, ends and D or L forms follow the SMILES beside them.
# Experiments:
# glucagon receptor = target: T1, glucagon receptor (Homo sapiens, UniProt P47871); assay: Functional assay-cAMP synthesis, luciferase reporter in HEK293 cells, glucagon receptor; format: cell-based; parameters: % activity: concentration or dose not given beside the values; conditions: for Glucagon Receptor Relative Potency: Table 11; for % Activity of Glucagon: Table 21, relative to the native peptide
# T1 construct: expressed in transfected cells; host or cells: HEK293
# GLP-1 receptor = GLP-1 receptor (Homo sapiens, UniProt P43220); conditions: for GLP-1 Receptor Relative Potency: Table 11; for % Activity of GLP-1: Table 21, relative to the native peptide
# Procedure: Peptide absorbance readings were obtained from UV Absorbance measurements at 280 nm on a Genesys 6 Spectrophotometer (Thermo Electron Corporation). Beer's Law was used to calculate solution concentrations based on the number of tryptophan and tyrosine residues in each analog. At the end of the incubation, 100 μL LucLite luminescence substrate reagent was added to each well, the plate sealed and shaken, and placed into a Wallac Trilux luminescence counter for cAMP detection.
# HEK293 cells were co-transfected with the GcgR or GLP-1R cDNAs and a luciferase reporter gene-linked to a cAMP response element (CRE). […] The plate was incubated for 10 min in the dark and light output was quantified on a MicroBeta1450 liquid scintillation counter (Perkin-Elmer, Wellesley, Mass.).
# [1] = Table 18, relative to the native hormone of the indicated receptor
# Chain of GLP-1 receptor (P43220 24-463, species assumed): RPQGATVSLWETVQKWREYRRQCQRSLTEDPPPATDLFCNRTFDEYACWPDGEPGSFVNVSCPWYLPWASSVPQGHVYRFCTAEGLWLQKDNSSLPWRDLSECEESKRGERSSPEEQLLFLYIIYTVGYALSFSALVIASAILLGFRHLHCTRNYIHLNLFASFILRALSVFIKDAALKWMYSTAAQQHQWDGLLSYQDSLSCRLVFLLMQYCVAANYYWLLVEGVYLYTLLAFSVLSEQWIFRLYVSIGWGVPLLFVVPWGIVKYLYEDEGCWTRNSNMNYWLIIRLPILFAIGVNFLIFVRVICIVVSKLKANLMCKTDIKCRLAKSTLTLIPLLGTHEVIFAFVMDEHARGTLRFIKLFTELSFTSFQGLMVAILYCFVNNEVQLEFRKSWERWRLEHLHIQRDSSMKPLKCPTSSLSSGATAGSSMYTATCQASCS
# T1 sequence (P47871 26-477): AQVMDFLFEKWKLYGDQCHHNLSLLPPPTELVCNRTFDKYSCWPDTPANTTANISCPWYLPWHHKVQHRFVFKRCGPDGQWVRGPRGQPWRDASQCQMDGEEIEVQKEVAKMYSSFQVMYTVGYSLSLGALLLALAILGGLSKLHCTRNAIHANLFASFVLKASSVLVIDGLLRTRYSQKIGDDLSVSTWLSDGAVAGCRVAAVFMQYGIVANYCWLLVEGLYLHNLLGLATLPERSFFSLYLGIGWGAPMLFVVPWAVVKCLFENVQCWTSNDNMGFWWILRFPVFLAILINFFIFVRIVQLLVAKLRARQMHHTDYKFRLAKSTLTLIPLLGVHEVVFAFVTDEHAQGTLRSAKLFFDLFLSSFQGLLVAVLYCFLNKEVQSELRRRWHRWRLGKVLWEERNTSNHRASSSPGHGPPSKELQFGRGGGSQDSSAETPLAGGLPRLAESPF
compound,measurement,setting,value
CSCC[C@H](NC(=O)[C@H](CC(C)C)NC(=O)[C@H](Cc1c[nH]c2ccccc12)NC(=O)[C@H](CCC(N)=O)NC(=O)[C@@H](NC(=O)[C@H](Cc1ccccc1)NC(=O)[C@H](CC(=O)O)NC(=O)[C@H](CCC(N)=O)NC(=O)[C@H](C)NC(=O)[C@H](CCCNC(=N)N)NC(=O)[C@H](CCCNC(=N)N)NC(=O)[C@H](CO)NC(=O)[C@H](CC(=O)O)NC(=O)[C@H](CC(C)C)NC(=O)[C@H](Cc1ccc(O)cc1)NC(=O)[C@H](CCCCN)NC(=O)[C@H](CO)NC(=O)[C@H](Cc1ccc(O)cc1)NC(=O)[C@H](CC(=O)O)NC(=O)[C@H](CO)NC(=O)[C@@H](NC(=O)[C@H](Cc1ccccc1)NC(=O)[C@@H](NC(=O)CNC(=O)[C@H](CCC(N)=O)NC(=O)[C@H](CO)NC(=O)[C@@H](N)Cc1c[nH]cn1)[C@@H](C)O)[C@@H](C)O)C(C)C)C(=O)N[C@@H](CC(N)=O)C(=O)NCC(=O)NCC(=O)N1CCC[C@H]1C(=O)N[C@@H](CO)C(=O)N[C@@H](CO)C(=O)NCC(=O)N[C@@H](C)C(=O)N1CCC[C@H]1C(=O)N1CCC[C@H]1C(=O)N1CCC[C@H]1C(=O)N[C@@H](CO)C(N)=O [MNGG^30 PSSGAPPPS (SEQ ID NO: 522)],Glucagon Receptor Relative Potency,glucagon receptor,30%
same,GLP-1 Receptor Relative Potency,GLP-1 receptor,8%
"CCCCCCCCCCCCCC(=O)NCCCC[C@H](NC(=O)[C@H](CC(=O)O)NC(=O)[C@H](CO)NC(=O)[C@@H](NC(=O)[C@H](Cc1ccccc1)NC(=O)[C@@H](NC(=O)CNC(=O)[C@H](CCC(N)=O)NC(=O)C(C)(C)NC(=O)[C@@H](N)Cc1c[nH]cn1)[C@@H](C)O)[C@@H](C)O)C(=O)N[C@@H](CO)C(=O)N[C@@H](CCCCN)C(=O)N[C@@H](Cc1ccc(O)cc1)C(=O)N[C@@H](CC(C)C)C(=O)N[C@@H](CC(=O)O)C(=O)NC(C)(C)C(=O)N[C@@H](CCCNC(=N)N)C(=O)N[C@@H](CCCNC(=N)N)C(=O)N[C@@H](C)C(=O)N[C@@H](CCC(N)=O)C(=O)N[C@@H](CC(=O)O)C(=O)N[C@@H](Cc1ccccc1)C(=O)N[C@H](C(=O)N[C@@H](CCC(N)=O)C(=O)N[C@@H](Cc1c[nH]c2ccccc12)C(=O)N[C@@H](CC(C)C)C(=O)N[C@@H](CCSC)C(=O)N[C@@H](CC(N)=O)C(=O)N[C@H](C(N)=O)[C@@H](C)O)C(C)C [AIB2, AIB16, K10(C14) Gluc Amide]",% Activity of Glucagon,glucagon receptor,77.3%
same,% Activity of GLP-1,GLP-1 receptor,33.3%
H-HSQGTFTSDYSKYLDSRRAQDFVQWLVKGGPSSGAPPPS-NH2 [VKGG^30 PSSGAPPPS (SEQ ID NO: 524)],Glucagon Receptor Relative Potency,glucagon receptor,7%
same,GLP-1 Receptor Relative Potency,GLP-1 receptor,12%
CSCC[C@H](NC(=O)[C@H](CC(C)C)NC(=O)[C@H](Cc1c[nH]c2ccccc12)NC(=O)[C@H](CC(N)=O)NC(=O)[C@@H](NC(=O)[C@H](Cc1ccccc1)NC(=O)[C@H](CCC(=O)O)NC(=O)[C@@H]1CCCCNC(=O)CC[C@H](NC(=O)[C@H](CC(=O)O)NC(=O)[C@H](CC(C)C)NC(=O)[C@H](Cc2ccc(O)cc2)NC(=O)[C@H](CCCCN)NC(=O)[C@H](CO)NC(=O)[C@H](Cc2ccc(O)cc2)NC(=O)[C@H](CC(=O)O)NC(=O)[C@H](CO)NC(=O)[C@@H](NC(=O)[C@H](Cc2ccccc2)NC(=O)[C@@H](NC(=O)CNC(=O)[C@H](CCC(N)=O)NC(=O)[C@H](CO)NC(=O)[C@@H](N)Cc2ccc(O)cc2)[C@@H](C)O)[C@@H](C)O)C(=O)N[C@@H](CCC(N)=O)C(=O)N[C@@H](C)C(=O)N[C@@H](C)C(=O)N1)C(C)C)C(=O)N[C@@H](CC(N)=O)C(=O)NCC(=O)NCC(=O)N1CCC[C@H]1C(=O)N[C@@H](CO)C(=O)N[C@@H](CO)C(=O)NCC(=O)N[C@@H](C)C(=O)N1CCC[C@H]1C(=O)N1CCC[C@H]1C(=O)N1CCC[C@H]1C(=O)N[C@@H](CO)C(N)=O [SEQ ID NO: 555] (H-YSQGTFTSDYSKYLDEQAAKEFVNWLMNGGPSSGAPPPS-NH2; lactam 16-20; N-terminus assumed),"Relative Activity, Glucagon receptor",glucagon receptor; [1],343.18%
same,"Relative Activity, GLP-1 receptor",GLP-1 receptor; [1],100.00%
"CCCCCCCCCCCCCC(=O)NCCCC[C@H](NC(=O)[C@H](CC(=O)O)NC(=O)[C@H](CO)NC(=O)[C@@H](NC(=O)[C@H](Cc1ccccc1)NC(=O)[C@@H](NC(=O)CNC(=O)[C@H](CCC(N)=O)NC(=O)[C@@H](CO)NC(=O)[C@@H](N)Cc1c[nH]cn1)[C@@H](C)O)[C@@H](C)O)C(=O)N[C@@H](CO)C(=O)N[C@@H](CCCCN)C(=O)N[C@@H](Cc1ccc(O)cc1)C(=O)N[C@@H](CC(C)C)C(=O)N[C@@H](CC(=O)O)C(=O)N[C@@H](CCC(=O)O)C(=O)N[C@@H](CCCNC(=N)N)C(=O)N[C@@H](CCCNC(=N)N)C(=O)N[C@@H](C)C(=O)N[C@@H](CCCCN)C(=O)N[C@@H](CC(=O)O)C(=O)N[C@@H](Cc1ccccc1)C(=O)N[C@H](C(=O)N[C@@H](CCC(N)=O)C(=O)N[C@@H](Cc1c[nH]c2ccccc12)C(=O)N[C@@H](CC(C)C)C(=O)N[C@@H](CCSC)C(=O)N[C@@H](CC(N)=O)C(=O)N[C@H](C(N)=O)[C@@H](C)O)C(C)C [dS2, E16/K20, K10(C14) Gluc Amide, HXQGTFTSDKSKYLDERRAKDFVQWLMNT-amide]",% Activity of Glucagon,glucagon receptor,21.9%
same,% Activity of GLP-1,GLP-1 receptor,6.3%
"CC[C@H](C)[C@H](NC(=O)[C@H](Cc1ccccc1)NC(=O)[C@H](CCC(=O)O)NC(=O)[C@H](CCCCN)NC(=O)[C@H](C)NC(=O)[C@H](C)NC(=O)[C@H](CCC(N)=O)NC(=O)CNC(=O)[C@H](CCC(=O)O)NC(=O)[C@H](CC(C)C)NC(=O)[C@H](Cc1ccc(O)cc1)NC(=O)[C@H](CO)NC(=O)[C@H](CO)NC(=O)[C@@H](NC(=O)[C@H](CC(=O)O)NC(=O)[C@H](CO)NC(=O)[C@@H](NC(=O)[C@H](Cc1ccccc1)NC(=O)[C@@H](NC(=O)CNC(=O)[C@H](CCC(=O)O)NC(=O)[C@H](C)NC(=O)[C@@H](N)Cc1c[nH]cn1)[C@@H](C)O)[C@@H](C)O)C(C)C)C(=O)N[C@@H](C)C(=O)N[C@@H](Cc1c[nH]c2ccccc12)C(=O)N[C@@H](CC(C)C)C(=O)N[C@H](C(=O)N[C@@H](CCCCN)C(=O)NCC(=O)NCC(N)=O)C(C)C [GLP-1-VKGG^30 (SEQ ID NO: 527), HAEGTFTSDVSSYLEGQAAKEFIAW LVKGGa, reference compound]",GLP-1 Receptor Relative Potency,GLP-1 receptor,100%
CSCC[C@H](NC(=O)[C@H](CC(C)C)NC(=O)[C@H](Cc1c[nH]c2ccccc12)NC(=O)[C@H](CCC(N)=O)NC(=O)[C@@H](NC(=O)[C@H](Cc1ccccc1)NC(=O)[C@H](CC(=O)O)NC(=O)[C@H](CCC(N)=O)NC(=O)[C@H](C)NC(=O)[C@H](CCCNC(=N)N)NC(=O)[C@H](CCCNC(=N)N)NC(=O)[C@H](CO)NC(=O)[C@H](CC(=O)O)NC(=O)[C@H](CC(C)C)NC(=O)[C@H](Cc1ccc(O)cc1)NC(=O)[C@H](CCCCN)NC(=O)[C@H](CO)NC(=O)[C@H](Cc1ccc(O)cc1)NC(=O)[C@H](CC(=O)O)NC(=O)[C@H](CO)NC(=O)[C@@H](NC(=O)[C@H](Cc1ccccc1)NC(=O)[C@@H](NC(=O)CNC(=O)[C@H](CCC(N)=O)NC(=O)[C@H](CO)NC(=O)[C@@H](N)Cc1c[nH]cn1)[C@@H](C)O)[C@@H](C)O)C(C)C)C(=O)N[C@@H](CCCCN)C(=O)NCC(=O)NCC(=O)N1CCC[C@H]1C(=O)N[C@@H](CO)C(=O)N[C@@H](CO)C(=O)NCC(=O)N[C@@H](C)C(=O)N1CCC[C@H]1C(=O)N1CCC[C@H]1C(=O)N1CCC[C@H]1C(=O)N[C@@H](CO)C(N)=O [MKGG^30 PSSGAPPPS (SEQ ID NO: 523)],Glucagon Receptor Relative Potency,glucagon receptor,14%
same,GLP-1 Receptor Relative Potency,GLP-1 receptor,3%
"CSCC[C@H](NC(=O)[C@H](CC(C)C)NC(=O)[C@H](Cc1c[nH]c2ccccc12)NC(=O)[C@H](CCC(N)=O)NC(=O)[C@@H](NC(=O)[C@H](Cc1ccccc1)NC(=O)[C@H](CC(=O)O)NC(=O)[C@H](CCCCN)NC(=O)[C@H](C)NC(=O)[C@H](CCCNC(=N)N)NC(=O)[C@H](CCCNC(=N)N)NC(=O)[C@H](CCC(=O)O)NC(=O)[C@H](CC(=O)O)NC(=O)[C@H](CC(C)C)NC(=O)[C@H](Cc1ccc(O)cc1)NC(=O)[C@H](CCCCN)NC(=O)[C@H](CO)NC(=O)[C@H](Cc1ccc(O)cc1)NC(=O)[C@H](CC(=O)O)NC(=O)[C@H](CO)NC(=O)[C@@H](NC(=O)[C@H](Cc1ccccc1)NC(=O)[C@@H](NC(=O)CNC(=O)[C@H](CCC(N)=O)NC(=O)[C@H](CO)NC(=O)[C@@H](N)Cc1c[nH]cn1)[C@@H](C)O)[C@@H](C)O)C(C)C)C(=O)N[C@@H](CC(N)=O)C(=O)N[C@H](C(N)=O)[C@@H](C)O [E16, K20 Gluc-NH2]",Percent Potency Relative to Native Ligand GRec,glucagon receptor; Table 5,130.1%
same,Percent Potency Relative to Native Ligand GRec,glucagon receptor; Table 9,130.1%
same,Percent Potency Relative to Native Ligand GLP-1Rec,GLP-1 receptor; Table 5,41.5%
same,Percent Potency Relative to Native Ligand GLP-1Rec,GLP-1 receptor; Table 9,41.5%
CCCC[C@H](NC(=O)[C@H](CC(C)C)NC(=O)[C@H](Cc1c[nH]c2ccccc12)NC(=O)[C@H](C)NC(=O)[C@@H](NC(=O)[C@H](Cc1ccccc1)NC(=O)[C@H](CCC(=O)O)NC(=O)[C@H](C)NC(=O)[C@H](C)NC(=O)[C@H](CCCNC(=N)N)NC(=O)[C@H](CCCNC(=N)N)NC(=O)[C@@H](NC(=O)[C@H](CC(=O)O)NC(=O)[C@H](CC(C)C)NC(=O)[C@H](Cc1ccc(O)cc1)NC(=O)[C@H](CCCCN)NC(=O)[C@H](CO)NC(=O)[C@H](Cc1ccc(O)cc1)NC(=O)[C@H](CC(=O)O)NC(=O)[C@H](CO)NC(=O)[C@@H](NC(=O)[C@H](Cc1ccccc1)NC(=O)[C@@H](NC(=O)CNC(=O)[C@H](CCCNC(C)=O)NC(=O)[C@H](CO)NC(=O)[C@@H](N)Cc1c[nH]cn1)[C@@H](C)O)[C@@H](C)O)[C@@H](C)O)C(C)C)C(=O)N[C@@H](CC(=O)O)C(=O)N[C@@H](CCC(=O)O)C(=O)O [SEQ ID NO: 599],% activity,"glucagon receptor; Table 26, glucagon receptor",7%
